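Assay format: 96-well plates, 48-hour exposure. GI50 is the concentration that inhibits growth by half.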 Activity calls are given as the source filed them. Cut-off read from the data, not from the text of the source: active = GI50 up to about 1.1 µM and inactive = higher.
How the values were obtained:
Experiment in all cases: NCI tumour cell line growth inhibition, 48 h
[1] = test system: TK-10
[2] = test system: SK-OV-3
[3] = test system: SF-268
[4] = test system: NCI-H226
[5] = test system: Malme-3M
[6] = test system: A549
[7] = test system: RXF 393
[8] = test system: Hs-578T
[9] = test system: MOLT-4
[10] = test system: NCI-H460
[11] = test system: HCT-116
[12] = test system: SF-295
[13] = test system: DU-145
[14] = test system: K562
[15] = test system: SK-MEL-2
[16] = test system: SN12C
[17] = test system: MDA-N
[18] = test system: HCC 2998

| Compound | GI50 [1] | GI50 [2] | GI50 [3] | GI50 [4] | GI50 [5] | GI50 [6] | GI50 [7] | GI50 [8] | GI50 [9] | GI50 [10] | GI50 [11] | GI50 [12] | GI50 [13] | GI50 [14] | GI50 [15] | GI50 [16] | GI50 [17] | GI50 [18] |
| --- | --- | --- | --- | --- | --- | --- | --- | --- | --- | --- | --- | --- | --- | --- | --- | --- | --- | --- |
| COc1cc2c(cc1OCCCCN1CCN(CCCCOc3cc4c(cc3OC)C(=O)N3CCC[C@H]3C=N4)CC1)N=C[C@@H]1CCCN1C2=O | 0.0589 µM (active) | 4.45 µM (inactive) | < 0.0289 µM (active) | < 0.01 µM (active) | 0.031 µM (active) | 0.0923 µM (active) | 0.0676 µM (active) | 0.0608 µM (active) | < 0.01 µM (active) | 0.0234 µM (active) | 0.0216 µM (active) | < 0.0352 µM (active) | 0.0361 µM (active) | 0.0199 µM (active) | 0.0389 µM (active) | < 0.01 µM (active) | – | – |
| O=Nc1c(-c2cccc([N+](=O)[O-])c2)nc2cnccn12 | 5.04 µM (inactive) | 68.7 µM (inactive) | 25.9 µM (inactive) | 18.5 µM (inactive) | 22.2 µM (inactive) | 29.5 µM (inactive) | 23 µM (inactive) | 31.7 µM (inactive) | 3.92 µM (inactive) | 33.9 µM (inactive) | 4.68 µM (inactive) | 43.4 µM (inactive) | 16.4 µM (inactive) | 18.3 µM (inactive) | 27.9 µM (inactive) | 24.4 µM (inactive) | – | – |
| O=C(CC(=O)CC(O)(C(F)(F)F)C(F)(F)F)CC(O)(C(F)(F)F)C(F)(F)F | > 10 µM (inactive) | > 10 µM (inactive) | > 10 µM (inactive) | > 10 µM (inactive) | > 10 µM (inactive) | > 10 µM (inactive) | > 10 µM (inactive) | > 10 µM (inactive) | > 10 µM (inactive) | > 10 µM (inactive) | > 10 µM (inactive) | > 10 µM (inactive) | > 10 µM (inactive) | > 10 µM (inactive) | > 10 µM (inactive) | > 10 µM (inactive) | > 10 µM (inactive) | – |
| C/C(=N\Nc1nc2ccccc2o1)c1cc2ccccc2cn1 | – | 0.0474 µM (active) | < 0.0188 µM (active) | < 0.0208 µM (active) | < 0.01 µM (active) | 0.054 µM (active) | 0.946 µM (active) | 0.237 µM (active) | < 0.01 µM (active) | 0.0311 µM (active) | < 0.01 µM (active) | 0.174 µM (active) | 0.349 µM (active) | < 0.01 µM (active) | 2.98 µM (inactive) | < 0.01 µM (active) | 0.942 µM (active) | – |
| CCOC(=O)C(=[N+]=[N-])C(=O)C1(C(=O)OCC)CCN(C(=O)c2ccccc2)C1=O (configuration not stated) | > 100 µM (inactive) | > 100 µM (inactive) | > 100 µM (inactive) | > 100 µM (inactive) | > 100 µM (inactive) | > 100 µM (inactive) | > 100 µM (inactive) | > 100 µM (inactive) | > 100 µM (inactive) | > 100 µM (inactive) | > 100 µM (inactive) | > 100 µM (inactive) | > 100 µM (inactive) | – | > 100 µM (inactive) | > 100 µM (inactive) | > 100 µM (inactive) | – |
| Cn1cnc([N+](=O)[O-])c1[Se]c1ncnc2nc[nH]c12 | 1.91 µM (inactive) | 15.4 µM (inactive) | 7.46 µM (inactive) | 10.5 µM (inactive) | 3.72 µM (inactive) | 27.5 µM (inactive) | 15.5 µM (inactive) | 3.7 µM (inactive) | 4.71 µM (inactive) | 22.1 µM (inactive) | 2.34 µM (inactive) | 4.21 µM (inactive) | 19.1 µM (inactive) | 4.07 µM (inactive) | 10.4 µM (inactive) | 11.7 µM (inactive) | – | – |
| CC(=O)NC1CONC1=O (configuration not stated) | > 100 µM (inactive) | > 100 µM (inactive) | > 100 µM (inactive) | > 100 µM (inactive) | > 100 µM (inactive) | > 100 µM (inactive) | > 100 µM (inactive) | > 100 µM (inactive) | > 100 µM (inactive) | > 100 µM (inactive) | > 100 µM (inactive) | > 100 µM (inactive) | > 100 µM (inactive) | > 100 µM (inactive) | > 100 µM (inactive) | > 100 µM (inactive) | > 100 µM (inactive) | – |
| CC1=CC(=O)/C(=C/N2C(=O)CNC2=S)C(=O)O1 | > 100 µM (inactive) | > 100 µM (inactive) | – | > 100 µM (inactive) | – | > 100 µM (inactive) | – | – | > 100 µM (inactive) | > 100 µM (inactive) | > 100 µM (inactive) | > 100 µM (inactive) | > 100 µM (inactive) | – | > 100 µM (inactive) | > 100 µM (inactive) | > 100 µM (inactive) | > 100 µM (inactive) |

Source: ChEMBL document CHEMBL1201862, “PubChem BioAssay data set” (2004)
